In the NIST ThermoML archive (doi:10.1016/j.tca.2011.10.030):
Numbers after ± are expanded uncertainties.

Assay: xn = mol fraction of the nth substance listed
Conditions: 101 kPa, Liquid; for viscosity: Capillary tube (Ostwald / Ubbelohde) method; for mass density: Vibrating tube method

Question: For CCCCCCn1cc[n+](C)c1.F[B-](F)(F)F [1-hexyl-3-methylimidazolium tetrafluoroborate] + CCCO, which viscosity (293.15 K, x1 = 0.1006) is on record?
Answer: 3.744 ± 0.034 mPa·s

Question: What about the viscosity (293.15 K, x1 = 0.199) of the same compound?
Answer: 6.294 ± 0.057 mPa·s

Question: And the viscosity (293.15 K, x1 = 0.3002)?
Answer: 10.08 ± 0.09 mPa·s

Question: And the viscosity (293.15 K, x1 = 0.4993)?
Answer: 23.7 ± 0.22 mPa·s

Question: What about the viscosity (293.15 K, x1 = 0.6309) of the same compound?
Answer: 41.96 ± 0.41 mPa·s

Question: What about the viscosity (293.15 K, x1 = 0.7571) of the same compound?
Answer: 73.7 ± 0.92 mPa·s

Question: What about the viscosity (293.15 K, x1 = 0.8894) of the same compound?
Answer: 139.42 ± 3.4 mPa·s

Question: And the viscosity (293.15 K, x1 = 1)?
Answer: 232.65 ± 8.2 mPa·s

Question: What about the mass density (293.15 K, x1 = 0.1006) of the same compound?
Answer: 895.6 ± 5 kg/m3

Question: What about the mass density (293.15 K, x1 = 0.199) of the same compound?
Answer: 955.99 ± 5 kg/m3

Question: And the mass density (293.15 K, x1 = 0.3002)?
Answer: 1001.98 ± 5 kg/m3

Question: And the mass density (293.15 K, x1 = 0.4993)?
Answer: 1065.02 ± 5 kg/m3

Question: What about the mass density (293.15 K, x1 = 0.6309) of the same compound?
Answer: 1094.51 ± 5 kg/m3

Question: And the mass density (293.15 K, x1 = 0.7571)?
Answer: 1116.98 ± 5.1 kg/m3

Question: And the mass density (293.15 K, x1 = 0.8894)?
Answer: 1135.92 ± 5.1 kg/m3

Question: What about the mass density (293.15 K, x1 = 1) of the same compound?
Answer: 1149.24 ± 5.1 kg/m3

Question: What about the viscosity (303.15 K, x1 = 0.1006) of the same compound?
Answer: 2.705 ± 0.025 mPa·s

Question: What about the viscosity (303.15 K, x1 = 0.199) of the same compound?
Answer: 4.518 ± 0.042 mPa·s

Question: What about the viscosity (303.15 K, x1 = 0.3002) of the same compound?
Answer: 7.158 ± 0.066 mPa·s

Question: And the viscosity (303.15 K, x1 = 0.4993)?
Answer: 16.37 ± 0.15 mPa·s

Question: What about the viscosity (303.15 K, x1 = 0.6309) of the same compound?
Answer: 27.85 ± 0.27 mPa·s

Question: What about the viscosity (303.15 K, x1 = 0.7571) of the same compound?
Answer: 46.65 ± 0.48 mPa·s

Question: What about the viscosity (303.15 K, x1 = 0.8894) of the same compound?
Answer: 82.45 ± 1.2 mPa·s

Question: What about the viscosity (303.15 K, x1 = 1) of the same compound?
Answer: 130.02 ± 3 mPa·s

Question: And the mass density (303.15 K, x1 = 0.1006)?
Answer: 887.71 ± 5 kg/m3

Question: What about the mass density (303.15 K, x1 = 0.199) of the same compound?
Answer: 948.28 ± 5 kg/m3

Question: What about the mass density (303.15 K, x1 = 0.3002) of the same compound?
Answer: 994.41 ± 5 kg/m3

Question: What about the mass density (303.15 K, x1 = 0.4993) of the same compound?
Answer: 1057.71 ± 5 kg/m3

Question: And the mass density (303.15 K, x1 = 0.6309)?
Answer: 1087.38 ± 5 kg/m3

Question: What about the mass density (303.15 K, x1 = 0.7571) of the same compound?
Answer: 1110.01 ± 5.1 kg/m3

Question: And the mass density (303.15 K, x1 = 0.8894)?
Answer: 1129.14 ± 5.1 kg/m3

Question: And the mass density (303.15 K, x1 = 1)?
Answer: 1142.48 ± 5.1 kg/m3

Question: What about the viscosity (313.15 K, x1 = 0.1004) of the same compound?
Answer: 1.999 ± 0.019 mPa·s

Question: What about the viscosity (313.15 K, x1 = 0.199) of the same compound?
Answer: 3.364 ± 0.032 mPa·s

Question: What about the viscosity (313.15 K, x1 = 0.3002) of the same compound?
Answer: 5.324 ± 0.051 mPa·s

Question: What about the viscosity (313.15 K, x1 = 0.4993) of the same compound?
Answer: 11.84 ± 0.11 mPa·s

Question: What about the viscosity (313.15 K, x1 = 0.6309) of the same compound?
Answer: 19.44 ± 0.19 mPa·s

Question: What about the viscosity (313.15 K, x1 = 0.7571) of the same compound?
Answer: 31.26 ± 0.32 mPa·s

Question: What about the viscosity (313.15 K, x1 = 0.8894) of the same compound?
Answer: 52.28 ± 0.5 mPa·s

Question: What about the viscosity (313.15 K, x1 = 1) of the same compound?
Answer: 78.24 ± 1.1 mPa·s

Question: And the mass density (313.15 K, x1 = 0.1006)?
Answer: 879.74 ± 5 kg/m3

Question: And the mass density (313.15 K, x1 = 0.199)?
Answer: 940.53 ± 5 kg/m3

Question: What about the mass density (313.15 K, x1 = 0.3002) of the same compound?
Answer: 986.83 ± 5 kg/m3

Question: And the mass density (313.15 K, x1 = 0.4993)?
Answer: 1050.43 ± 5 kg/m3

Question: What about the mass density (313.15 K, x1 = 0.6309) of the same compound?
Answer: 1080.27 ± 5 kg/m3

Question: And the mass density (313.15 K, x1 = 0.7571)?
Answer: 1103.05 ± 5.1 kg/m3

Question: What about the mass density (313.15 K, x1 = 0.8894) of the same compound?
Answer: 1122.32 ± 5.1 kg/m3

Question: And the mass density (313.15 K, x1 = 1)?
Answer: 1135.79 ± 5.1 kg/m3

Question: And the viscosity (323.15 K, x1 = 0.1006)?
Answer: 1.502 ± 0.014 mPa·s

Question: And the viscosity (323.15 K, x1 = 0.199)?
Answer: 2.585 ± 0.025 mPa·s

Question: What about the viscosity (323.15 K, x1 = 0.3002) of the same compound?
Answer: 4.056 ± 0.039 mPa·s

Question: What about the viscosity (323.15 K, x1 = 0.4993) of the same compound?
Answer: 8.808 ± 0.086 mPa·s

Question: And the viscosity (323.15 K, x1 = 0.6309)?
Answer: 14.25 ± 0.14 mPa·s

Question: What about the viscosity (323.15 K, x1 = 0.7571) of the same compound?
Answer: 21.97 ± 0.23 mPa·s

Question: And the viscosity (323.15 K, x1 = 0.8894)?
Answer: 35.15 ± 0.38 mPa·s

Question: And the viscosity (323.15 K, x1 = 1)?
Answer: 50.3 ± 0.51 mPa·s

Question: What about the mass density (323.15 K, x1 = 0.1006) of the same compound?
Answer: 871.67 ± 5 kg/m3

Question: What about the mass density (323.15 K, x1 = 0.199) of the same compound?
Answer: 932.73 ± 5 kg/m3

Question: What about the mass density (323.15 K, x1 = 0.3002) of the same compound?
Answer: 979.23 ± 5 kg/m3

Question: And the mass density (323.15 K, x1 = 0.4993)?
Answer: 1043.18 ± 5 kg/m3

Question: And the mass density (323.15 K, x1 = 0.6309)?
Answer: 1073.19 ± 5 kg/m3

Question: And the mass density (323.15 K, x1 = 0.7571)?
Answer: 1096.1 ± 5 kg/m3

Question: And the mass density (323.15 K, x1 = 0.8894)?
Answer: 1115.51 ± 5.1 kg/m3

Question: What about the mass density (323.15 K, x1 = 1) of the same compound?
Answer: 1129.08 ± 5.1 kg/m3

Question: And the viscosity (333.15 K, x1 = 0.1006)?
Answer: 1.123 ± 0.011 mPa·s

Question: What about the viscosity (333.15 K, x1 = 0.199) of the same compound?
Answer: 1.99 ± 0.019 mPa·s

Question: What about the viscosity (333.15 K, x1 = 0.3002) of the same compound?
Answer: 3.14 ± 0.031 mPa·s

Question: And the viscosity (333.15 K, x1 = 0.4993)?
Answer: 6.76 ± 0.067 mPa·s

Question: And the viscosity (333.15 K, x1 = 0.6309)?
Answer: 10.74 ± 0.11 mPa·s

Question: And the viscosity (333.15 K, x1 = 0.7571)?
Answer: 16.09 ± 0.17 mPa·s

Question: What about the viscosity (333.15 K, x1 = 0.8894) of the same compound?
Answer: 24.67 ± 0.27 mPa·s

Question: And the viscosity (333.15 K, x1 = 1)?
Answer: 34.02 ± 0.39 mPa·s

Question: What about the mass density (333.15 K, x1 = 0.1006) of the same compound?
Answer: 863.47 ± 5 kg/m3

Question: What about the mass density (333.15 K, x1 = 0.199) of the same compound?
Answer: 924.86 ± 5 kg/m3

Question: What about the mass density (333.15 K, x1 = 0.3002) of the same compound?
Answer: 971.61 ± 5 kg/m3

Question: And the mass density (333.15 K, x1 = 0.4993)?
Answer: 1035.95 ± 5 kg/m3

Question: What about the mass density (333.15 K, x1 = 0.6309) of the same compound?
Answer: 1066.15 ± 5 kg/m3

Question: What about the mass density (333.15 K, x1 = 0.7571) of the same compound?
Answer: 1089.2 ± 5 kg/m3

Question: And the mass density (333.15 K, x1 = 0.8894)?
Answer: 1108.71 ± 5.1 kg/m3

Question: What about the mass density (333.15 K, x1 = 1) of the same compound?
Answer: 1122.37 ± 5.1 kg/m3
